This is an account of results in US20150191469A1, “COMPOUNDS AND METHODS FOR TREATING HIV” (priority 2012, published 2015).

The test system of the assay is HIV. The experiment in a line: MT4 assay: antiviral HIV activity (cell protection, cell titer glo readout at 96 hours). The class given is cell-based. The following applies: Human immunodeficiency virus 1, MT4, 96 h, MT4 cells, cell titer glo readout at 96 hours, 10 point dose response; read-out: HIV MT4 Assay IC50. A digest of the protocol:
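MT-4 cells infected with HIV, with inhibition readout by CellTiter-Glo luminescence at 96 h relative to no-compound control. Cytotoxicity measured in parallel under the same conditions. IC50 from a 10-point, 3-4-fold dilution series spanning >1000-fold, fitted with a four-parameter logistic equation.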
In general terms: Cellular ATP, detected with luciferase, serves as a proxy for viable cell number.
In general, IC50 refers to the point on the concentration scale where inhibition reaches its midpoint. For `Cc1nc2c(cc(C(=O)N3CC(c4ccccc4)C3)n2C)c(-c2cc(F)c3c(c2C)CCCO3)c1[C@H](OC(C)(C)C)C(=O)O` [Example 194], the IC50 was 0.0015 µM.

Turning to `Cc1nc2c(cc(C(=O)NC(C)(C)c3ccccc3)n2C)c(-c2cc(F)c3c(c2C)CCCO3)c1[C@H](OC(C)(C)C)C(=O)O` [Example 195], the IC50 came to 0.026 µM.

As to `Cc1nc2c(cc(C(=O)N3CCN(C(C)c4ccccc4)CC3)n2C)c(-c2cc(F)c3c(c2C)CCCO3)c1[C@H](OC(C)(C)C)C(=O)O` (some centres unmarked) [Example 196], the IC50 was determined as 0.0123 µM.

On to `CC(=O)N1CCCN(C(=O)c2cc3c(-c4cc(F)c5c(c4C)CCCO5)c([C@H](OC(C)(C)C)C(=O)O)c(C)nc3n2C)CC1` [Example 197], for which the IC50 was found to be 6.81 µM.

Turning to `Cc1nc2c(cc(C(=O)N3CCN(C(=O)OCc4ccccc4)CC3)n2C)c(-c2cc(F)c3c(c2C)CCCO3)c1[C@H](OC(C)(C)C)C(=O)O` [Example 198], the IC50 was found to be 0.0263 µM.

With `Cc1nc2c(cc(C(=O)N3CCN(c4ncccn4)CC3)n2C)c(-c2cc(F)c3c(c2C)CCCO3)c1[C@H](OC(C)(C)C)C(=O)O` [Example 199], the IC50 was 0.0276 µM.

Regarding `Cc1nc2c(cc(C(=O)N3CCC4(CC3)CC(Cc3cccnc3)C(=O)O4)n2C)c(-c2cc(F)c3c(c2C)CCCO3)c1[C@H](OC(C)(C)C)C(=O)O` (some centres unmarked) [Example 200], the IC50 was 8.05 µM.

Turning to `Cc1nc2c(cc(C(=O)N3CCN(C(=O)C4CCCCC4)CC3)n2C)c(-c2cc(F)c3c(c2C)CCCO3)c1[C@H](OC(C)(C)C)C(=O)O` [Example 201], the IC50 was 0.0657 µM.

Consider `Cc1nc2c(cc(C(=O)N(CCC(C)C)CCC(C)C)n2C)c(-c2cc(F)c3c(c2C)CCCO3)c1[C@H](OC(C)(C)C)C(=O)O` [Example 202], for which the IC50 was 0.0928 µM.

Take `Cc1nc2c(cc(C(=O)N3CCN(CC(=O)N4CCCC4)CC3)n2C)c(-c2cc(F)c3c(c2C)CCCO3)c1[C@H](OC(C)(C)C)C(=O)O` [Example 203]: the IC50 came to 6.04 µM.

On to `Cc1nc2c(cc(C(=O)N3CCN(CC(=O)N4CCOCC4)CC3)n2C)c(-c2cc(F)c3c(c2C)CCCO3)c1[C@H](OC(C)(C)C)C(=O)O` [Example 204], for which the IC50 is 11.4 µM.

As to `Cc1nc2c(cc(C(=O)N3CCOC(C)(C(=O)NC4CCCC4)C3)n2C)c(-c2cc(F)c3c(c2C)CCCO3)c1[C@H](OC(C)(C)C)C(=O)O` (some centres unmarked) [Example 205], the IC50 was 0.373 µM.

Turning to `Cc1nc2c(cc(C(=O)N3CCCN(c4nccs4)CC3)n2C)c(-c2cc(F)c3c(c2C)CCCO3)c1[C@H](OC(C)(C)C)C(=O)O` [Example 206], the IC50 stood at 0.126 µM.

Turning to `CCN(CC)C(=O)C1CCCN(C(=O)c2cc3c(-c4cc(F)c5c(c4C)CCCO5)c([C@H](OC(C)(C)C)C(=O)O)c(C)nc3n2C)C1` (some centres unmarked) [Example 207], the IC50 came out at 0.311 µM.

Take `Cc1nc2c(cc(C(=O)N3CCN(c4nccs4)CC3)n2C)c(-c2cc(F)c3c(c2C)CCCO3)c1[C@H](OC(C)(C)C)C(=O)O` [Example 208]: the IC50 came out at 0.0396 µM.

Take `Cc1nc2c(cc(C(=O)NCc3ccccc3)n2C)c(-c2cc(F)c3c(c2C)CCCO3)c1[C@H](OC(C)(C)C)C(=O)O` [Example 209]: the IC50 stood at 0.0094 µM.

Take `Cc1nc2c(cc(C(=O)N[C@@H](C)c3ccccc3)n2C)c(-c2cc(F)c3c(c2C)CCCO3)c1[C@H](OC(C)(C)C)C(=O)O` [Example 210]: the IC50 is 0.005 µM.

Turning to `Cc1cnc(CNC(=O)c2cc3c(-c4cc(F)c5c(c4C)CCCO5)c([C@H](OC(C)(C)C)C(=O)O)c(C)nc3n2C)cn1` [Example 211], the IC50 was found to be 0.121 µM.

On to `Cc1nc2c(cc(C(=O)NCCc3ccccc3)n2C)c(-c2cc(F)c3c(c2C)CCCO3)c1[C@H](OC(C)(C)C)C(=O)O` [Example 212], for which the IC50 came to 0.0288 µM.

Turning to `Cc1nc2c(cc(C(=O)NCCOc3ccccc3)n2C)c(-c2cc(F)c3c(c2C)CCCO3)c1[C@H](OC(C)(C)C)C(=O)O` [Example 213], the IC50 was found to be 0.0039 µM.

As to `Cc1nc2c(cc(C(=O)NC[C@H](C)c3ccccc3)n2C)c(-c2cc(F)c3c(c2C)CCCO3)c1[C@H](OC(C)(C)C)C(=O)O` [Example 214], the IC50 worked out at 0.0446 µM.

In the case of `Cc1nc2c(cc(C(=O)NC[C@@H](C)c3ccccc3)n2C)c(-c2cc(F)c3c(c2C)CCCO3)c1[C@H](OC(C)(C)C)C(=O)O` [Example 215], the IC50 was 0.03 µM.

Take `COc1ccc([C@@H](C)NC(=O)c2cc3c(-c4cc(F)c5c(c4C)CCCO5)c([C@H](OC(C)(C)C)C(=O)O)c(C)nc3n2C)cc1` [Example 216]: the IC50 turned out to be 0.0413 µM.

On to `CC(=O)NC1(c2ccccc2)CCN(C(=O)c2cc3c(-c4cc(F)c5c(c4C)CCCO5)c([C@H](OC(C)(C)C)C(=O)O)c(C)nc3n2C)CC1` [Example 217], for which the IC50 is 3.38 µM.

As to `CC1=NC2(CCN(C(=O)c3cc4c(-c5cc(F)c6c(c5C)CCCO6)c([C@H](OC(C)(C)C)C(=O)O)c(C)nc4n3C)CC2)N=C1c1ccccc1` [Example 218], the IC50 stood at 0.0473 µM.

With `Cc1nc2c(cc(C(=O)N3CCN(CC(=O)N(C)c4ccccc4)CC3)n2C)c(-c2cc(F)c3c(c2C)CCCO3)c1[C@H](OC(C)(C)C)C(=O)O` [Example 219], the IC50 was 0.807 µM.

As for `Cc1nc2c(cc(C(=O)N3CCN(C(=O)N(C)C)CC3)n2C)c(-c2cc(F)c3c(c2C)CCCO3)c1[C@H](OC(C)(C)C)C(=O)O` [Example 220], the IC50 stood at 1.77 µM.

As for `Cc1nc2c(cc(C(=O)N3CCC4(CC3)C(=O)NC(=O)N4C)n2C)c(-c2cc(F)c3c(c2C)CCCO3)c1[C@H](OC(C)(C)C)C(=O)O` [Example 221], the IC50 was determined as 17.6 µM.

On to `Cc1nc2c(cc(C(=O)N3[C@@H]4CC[C@H]3CC(N3CCOCC3)C4)n2C)c(-c2cc(F)c3c(c2C)CCCO3)c1[C@H](OC(C)(C)C)C(=O)O` (some centres unmarked) [Example 222], for which the IC50 is 0.376 µM.

Turning to `Cc1nc2c(cc(C(=O)N3CCN(C4CCOCC4)C[C@H]3C)n2C)c(-c2cc(F)c3c(c2C)CCCO3)c1[C@H](OC(C)(C)C)C(=O)O` [Example 223], the IC50 amounted to 0.121 µM.

For the compound `Cc1ccc(N2CCN(C(=O)c3cc4c(-c5cc(F)c6c(c5C)CCCO6)c([C@H](OC(C)(C)C)C(=O)O)c(C)nc4n3C)CC2)cc1` [Example 224], the IC50 came out at 0.0414 µM.

Take `Cc1nc2c(cc(C(=O)N3CCN(C4CCOCC4)CC3)n2C)c(-c2cc(F)c3c(c2C)CCCO3)c1[C@H](OC(C)(C)C)C(=O)O` [Example 225]: the half-maximal inhibitory concentration (IC50) is 0.436 µM.

For `Cc1nc2c(cc(C(=O)NCc3ccc(N(C)C)cc3)n2C)c(-c2cc(F)c3c(c2C)CCCO3)c1[C@H](OC(C)(C)C)C(=O)O` [Example 227], the IC50 was found to be 0.0028 µM.

Take `CNC(=O)c1cc2c(-c3cc(F)c4c(c3C)CCCO4)c([C@H](OC(C)(C)C)C(=O)O)c(C)nc2n1C` [Example 228]: the IC50 came to 0.136 µM.

As to `Cc1nc2c(cc(C(=O)NCC3CC3)n2C)c(-c2cc(F)c3c(c2C)CCCO3)c1[C@H](OC(C)(C)C)C(=O)O` [Example 229], the concentration for half-maximal inhibition (IC50) was found to be 0.0122 µM.

Regarding `Cc1nc2c(cc(C(=O)NCc3ccc(F)cc3)n2C)c(-c2cc(F)c3c(c2C)CCCO3)c1[C@H](OC(C)(C)C)C(=O)O` [Example 230], the IC50 is 0.0047 µM.

As for `COCCNC(=O)c1cc2c(-c3cc(F)c4c(c3C)CCCO4)c([C@H](OC(C)(C)C)C(=O)O)c(C)nc2n1C` [Example 231], the IC50 is 0.0487 µM.

In the case of `Cc1nc2c(cc(C(=O)NCCC(C)(C)C)n2C)c(-c2cc(F)c3c(c2C)CCCO3)c1[C@H](OC(C)(C)C)C(=O)O` [Example 232], the IC50 was determined as 0.002 µM.

Take `COc1ccc(CNC(=O)c2cc3c(-c4cc(F)c5c(c4C)CCCO5)c([C@H](OC(C)(C)C)C(=O)O)c(C)nc3n2C)cc1` [Example 233]: the IC50 was determined as 0.0036 µM.

Regarding `Cc1nc2c(cc(C(=O)NC3CC3)n2C)c(-c2cc(F)c3c(c2C)CCCO3)c1[C@H](OC(C)(C)C)C(=O)O` [Example 234], the IC50 was 0.0447 µM.

As to `CSCCNC(=O)c1cc2c(-c3cc(F)c4c(c3C)CCCO4)c([C@H](OC(C)(C)C)C(=O)O)c(C)nc2n1C` [Example 235], the IC50 turned out to be 0.0324 µM.

Turning to `Cc1nc2c(cc(C(=O)NCCS(C)(=O)=O)n2C)c(-c2cc(F)c3c(c2C)CCCO3)c1[C@H](OC(C)(C)C)C(=O)O` [Example 236], the IC50 was 4.14 µM.

For the compound `Cc1nc2c(cc(C(=O)NCC3CCCCC3)n2C)c(-c2cc(F)c3c(c2C)CCCO3)c1[C@H](OC(C)(C)C)C(=O)O` [Example 237], the IC50 was determined as 0.0043 µM.

With `Cc1nc2c(cc(C(=O)NCCO)n2C)c(-c2cc(F)c3c(c2C)CCCO3)c1[C@H](OC(C)(C)C)C(=O)O` [Example 238], the IC50 came out at 3.86 µM.

Regarding `CCCCNC(=O)c1cc2c(-c3cc(F)c4c(c3C)CCCO4)c([C@H](OC(C)(C)C)C(=O)O)c(C)nc2n1C` [Example 239], the IC50 is 0.0065 µM.

On to `Cc1nc2c(cc(C(=O)NCCN3CCOCC3)n2C)c(-c2cc(F)c3c(c2C)CCCO3)c1[C@H](OC(C)(C)C)C(=O)O` [Example 240], for which the IC50 came to 0.37 µM.

Regarding `Cc1nc2c(cc(C(=O)NCCC3CCOCC3)n2C)c(-c2cc(F)c3c(c2C)CCCO3)c1[C@H](OC(C)(C)C)C(=O)O` [Example 241], the half-inhibitory concentration (IC50) was 0.0212 µM.

With `Cc1nc2c(cc(C(=O)NC(C)(C)C)n2C)c(-c2cc(F)c3c(c2C)CCCO3)c1[C@H](OC(C)(C)C)C(=O)O` [Example 242], the IC50 was 0.0793 µM.

As for `Cc1nc2c(cc(C(=O)NCC(C)(C)C)n2C)c(-c2cc(F)c3c(c2C)CCCO3)c1[C@H](OC(C)(C)C)C(=O)O` [Example 243], the IC50 amounted to 0.03 µM.

For the compound `Cc1nc2c(cc(C(=O)NC(C)C)n2C)c(-c2cc(F)c3c(c2C)CCCO3)c1[C@H](OC(C)(C)C)C(=O)O` [Example 244], the IC50 is 0.0253 µM.

With `Cc1nc2c(cc(C(=O)NCCC(F)(F)F)n2C)c(-c2cc(F)c3c(c2C)CCCO3)c1[C@H](OC(C)(C)C)C(=O)O` [Example 245], the 50% inhibitory concentration (IC50) was 0.0225 µM.

For the compound `Cc1nc2c(cc(C(=O)NCC(C)C)n2C)c(-c2cc(F)c3c(c2C)CCCO3)c1[C@H](OC(C)(C)C)C(=O)O` [Example 246], the half-maximal inhibitory concentration (IC50) amounted to 0.0151 µM.

For `Cc1nc2c(cc(C(=O)NCCCN(C)C)n2C)c(-c2cc(F)c3c(c2C)CCCO3)c1[C@H](OC(C)(C)C)C(=O)O` [Example 247], the IC50 is 18.1 µM.
